≈ marks a conversion by molar mass, not a printed value. Read-outs that look alike come from different tables or passages of the source.
Columns and labels:
[1] = test system: Lactobacillus iners ATCC 55195; test: MIC by broth microdilution method (CLSI M07-A8 / M11-A7); assay type: cell-based; details: ATCC55195
Protocol: The in vitro activity of nifuratel sulfoxide racemate, R-nifuratel sulfoxide and S-nifuratel sulfoxide was tested on a panel of bacteria, which included both Gram positive and Gram negative bacteria. The minimum inhibitory concentrations (MICs) of the compounds were determined by the broth microdilution method or by the agar dilution method, according to the National Committee for Clinical Laboratory Standards (CLSI) reference methods […]-A8 and M11-A7.

[2] = test system: Escherichia coli ATCC 11775; test: MIC by broth microdilution method (CLSI M07-A8 / M11-A7); efficiency coefficient derived; assay type: cell-based; details: ATCC11775
Protocol: (§1) The in vitro activity of nifuratel sulfoxide racemate, R-nifuratel sulfoxide and S-nifuratel sulfoxide was tested on a panel of bacteria, which included both Gram positive and Gram negative bacteria.
(§2) The minimum inhibitory concentrations (MICs) of the compounds were determined by the broth microdilution method or by the agar dilution method, according to the National Committee for Clinical Laboratory Standards (CLSI) reference methods M07-A8 and M11-A7.
(§3) The efficiency coefficient (EC) of nifuratel sulfoxide vs. nifuratel was calculated for each tested strain as follows: EC = relative oral bioavailability*[…] [formula]
(§4) Where: • nifS = nifuratel sulfoxide • nif = nifuratel • EC = 1 is indicative of equivalent efficiency between nifuratel sulfoxide and nifuratel. • EC < 1 is indicative of a lower efficiency of nifuratel sulfoxide vs. nifuratel • EC > 1 is indicative of a higher efficiency of nifS vs. nif

[3] = test system: Klebsiella pneumonia ATCC 10031; test: as above; assay type: cell-based; details: Klebsiella pneumoniae, ATCC10031
Protocol: as §1, §2, §3, §4

[4] = test system: Micrococcus pyogenes ATCC 11631; test: as above; assay type: cell-based; details: Staphylococcus aureus, ATCC11631
Protocol: as §1, §2, §3, §4

[5] = test system: Neisseria gonorrhoeae ATCC 19424; test: as above; assay type: cell-based; details: ATCC19424
Protocol: as §1, §2, §3, §4

[6] = test system: Proteus mirabilis ATCC 14153; test: as above; assay type: cell-based; details: ATCC14153
Protocol: as §1, §2, §3, §4

[7] = test system: Salmonella paratyphi B ATCC 10719; test: as above; assay type: cell-based; details: Salmonella enterica, read-out: MIC
Protocol: as §1, §2, §3, §4

[8] = test system: Salmonella typhimurium ATCC 14028; test: as above; assay type: cell-based; details: Salmonella enterica
Protocol: as §1, §2, §3, §4

[9] = test system: Shigella sonnei ATCC 11060; test: as above; assay type: cell-based; details: ATCC11060, read-out: MIC
Protocol: as §1, §2, §3, §4

[10] = test system: Staphylococcus aureus (MRSA); test: as above; assay type: cell-based
Protocol: as §1, §2, §3, §4

Atopobium vaginae = test: MIC by agar dilution method (CLSI M07-A8 / M11-A7); efficiency coefficient derived; assay type: cell-based; details: for MIC: Fannyhessea vaginae
Protocol: as §1, §2, §3, §4

Gardnerella vaginalis = test: as above; assay type: cell-based; details: for MIC: Gardnerella vaginalis
Protocol: as §1, §2, §3, §4

[11] = Rat pharmacokinetics in plasma, non compartmental analysis; assay type: in vivo, male rats
Protocol: The pharmacokinetic profiles in plasma of nifuratel and nifuratel sulfoxide were tested after intravenous administration (2mg/kg) and oral gavage (15mg/kg) in male rats. […]

[12] = Metabolic profiling of nifuratel in human urines by LC/MS/MS after oral administration; assay type: in vivo
Protocol: As a matter of fact, metabolic profiling of nifuratel, following oral administration, was assessed in human urines by liquid chromatography/tandem mass spectrometry (LC/MS/MS).
More in details, urines of two subjects treated orally with nifuratel were collected at the following time-points: pre-dose, 0-4, 4-8, 8-12, 12-24, 24-36 and 36-48 h after treatment.
Nifuratel was not detected in any of the urine samples. […] Based on such a discovery, the applicant has performed both in vitro and in vivo tests in order to establish whether nifuratel sulfoxide is endowed with anti-bacterial activity.

[13] = 2mg/kg intravenous administration, male rats
[14] = 15mg/kg oral administration, male rats
[15] = IV (2mg/Kg), male rats, plasma, mean
[16] = rat, in vivo, IV (2mg/Kg), male rats, plasma, mean
[17] = rat, in vivo, XOS (15mg/kg), oral gavage, male rats, plasma, mean
[18] = male, rat, in vivo, iv, 2 mg/kg
[19] = male, rat, in vivo, po, 15 mg/kg

C[S+]([O-])CC1CN(/N=C/c2ccc([N+](=O)[O-])o2)C(=O)O1 (racemic) [Nifuratel sulfoxide, nifuratel sulfoxide]
MIC ([1]; broth microdilution, Lactobacillus iners ATCC 55195, read-out: MIC): 16 µg/mL (≈ 53.1 µM) | MIC ([2]; broth microdilution, Escherichia coli ATCC 11775, read-out: MIC): 16 µg/mL (≈ 53.1 µM) | MIC ([3]; broth microdilution, Klebsiella pneumonia ATCC 10031, read-out: MIC): 16 µg/mL (≈ 53.1 µM) | MIC ([4]; broth microdilution, Micrococcus pyogenes ATCC 11631, read-out: MIC): 32 µg/mL (≈ 106 µM) | MIC ([5]; broth microdilution, Neisseria gonorrhoeae ATCC 19424, read-out: MIC): 2 µg/mL (≈ 6.64 µM) | MIC ([6]; broth microdilution, Proteus mirabilis ATCC 14153, read-out: MIC): 8 µg/mL (≈ 26.6 µM) | MIC [7]: 8 µg/mL (≈ 26.6 µM) | MIC ([8]; broth microdilution, Salmonella typhimurium ATCC 14028, read-out: MIC): 32 µg/mL (≈ 106 µM) | MIC [9]: 16 µg/mL (≈ 53.1 µM) | MIC ([10]; broth microdilution, Staphylococcus aureus (MRSA), read-out: MIC): 16 µg/mL (≈ 53.1 µM) | MIC (Atopobium vaginae; CCUG38953, agar dilution, strain CCUG 38953, read-out: MIC): 2 µg/mL (≈ 6.64 µM) | MIC (Atopobium vaginae; CCUG39382, agar dilution, strain CCUG 39382, read-out: MIC): 1 µg/mL (≈ 3.32 µM) | MIC (Atopobium vaginae; CCUG42099, agar dilution, strain CCUG 42099, read-out: MIC): 2 µg/mL (≈ 6.64 µM) | MIC (Atopobium vaginae; CCUG43049, agar dilution, strain CCUG 43049, read-out: MIC): 4 µg/mL (≈ 13.3 µM) | MIC (Atopobium vaginae; CCUG44061, agar dilution, strain CCUG 44061, read-out: MIC): 1 µg/mL (≈ 3.32 µM) | MIC (Atopobium vaginae; CCUG44156, agar dilution, strain CCUG 44156, read-out: MIC): 1 µg/mL (≈ 3.32 µM) | MIC (Atopobium vaginae; CCUG48515, agar dilution, strain CCUG 48515, read-out: MIC): 2 µg/mL (≈ 6.64 µM) | MIC (Atopobium vaginae; CCUG55226, agar dilution, strain CCUG 55226, read-out: MIC): 4 µg/mL (≈ 13.3 µM) | MIC (Atopobium vaginae; CCUG55227, agar dilution, strain CCUG 55227, read-out: MIC): 4 µg/mL (≈ 13.3 µM) | in vitro antimicrobial activity (in words) (Atopobium vaginae; tested Atopobium vaginae strains): good activity | MIC (Gardnerella vaginalis; ATCC14018, agar dilution, strain ATCC 14018, read-out: MIC): 8 µg/mL (≈ 26.6 µM) | MIC (Gardnerella vaginalis; agar dilution, strain C2, read-out: MIC): 16 µg/mL (≈ 53.1 µM) | MIC (Gardnerella vaginalis; agar dilution, strain D2, read-out: MIC): 32 µg/mL (≈ 106 µM) | MIC (Gardnerella vaginalis; agar dilution, strain E2, read-out: MIC): 32 µg/mL (≈ 106 µM) | MIC (Gardnerella vaginalis; agar dilution, strain G2, read-out: MIC): 32 µg/mL (≈ 106 µM) | MIC (Gardnerella vaginalis; agar dilution, strain H2, read-out: MIC): 8 µg/mL (≈ 26.6 µM) | MIC (Gardnerella vaginalis; agar dilution, strain J2, read-out: MIC): 32 µg/mL (≈ 106 µM) | MIC (Gardnerella vaginalis; agar dilution, strain K2, read-out: MIC): 32 µg/mL (≈ 106 µM) | in vitro antimicrobial activity (in words) (Gardnerella vaginalis; tested Gardnerella vaginalis strains): good activity | AUC, folds higher than nifuratel [11, 13]: over 5 folds | Cmax, folds higher than nifuratel [11, 13]: 4 folds | clearance, folds slower with respect to nifuratel [11, 13]: over 5 folds | AUC, folds higher than nifuratel [11, 14]: 30 folds | Cmax, folds higher than nifuratel [11, 14]: 37 folds | increased bioavailability versus nifuratel [11, 14]: 5 fold | T1/7 [11, 15]: 15.5 min | Tlast [11, 15]: 120 min | Vss [11, 15]: 0.865 kg⁻¹ | Mean Fpo ([11]; XOS (15mg/kg), oral gavage, male rats): 11% | Tlast ([11]; XOS (15mg/kg), oral gavage, male rats, plasma, mean): 240 min | AUC(0-inf) [11, 16]: 703 ng·h/mL | AUC(0-t) [11, 16]: 700 ng·h/mL | MRT [11, 16]: 17.7 min | clearance [11, 16]: 47.5 mL/min/kg | C0 ([11]; rat, in vivo, IV (2mg/Kg), male rats, plasma, mean, read-out: C0): 2820 ng/mL | concentration at 120 min ([11]; rat, in vivo, IV (2mg/Kg), male rats, plasma, mean, read-out: Clast): 73 ng/mL | Cmax ([11]; rat, in vivo, IV (2mg/Kg), male rats, plasma, mean, read-out: Cmax): 2220 ng/mL | Tmax ([11]; rat, in vivo, IV (2mg/Kg), male rats, plasma, mean, read-out: Tmax (converted)): 2 min | AUC(0-t) [11, 17]: 605 ng·h/mL | MRT [11, 17]: 94 min | half-life [11, 17]: 128 min | concentration at 240 min ([11]; rat, in vivo, XOS (15mg/kg), oral gavage, male rats, plasma, mean, read-out: Clast): 80.6 ng/mL | Cmax ([11]; rat, in vivo, XOS (15mg/kg), oral gavage, male rats, plasma, mean, read-out: Cmax): 298 ng/mL | Tmax ([11]; rat, in vivo, XOS (15mg/kg), oral gavage, male rats, plasma, mean, read-out: Tmax (converted)): 23 min | metabolite found in urine ([12]; two subjects treated orally with nifuratel, attributed by mass spectrometry): major metabolite

CSCC1CN(/N=C/c2ccc([N+](=O)[O-])o2)C(=O)O1 (stereo not drawn) [Nifuratel]
MIC ([1]; Lactobacillus iners): 16 µg/mL (≈ 56.1 µM) | MIC ([2]; Escherichia coli): 1 µg/mL (≈ 3.51 µM) | MIC [3]: 2 µg/mL (≈ 7.01 µM) | MIC [4]: 1 µg/mL (≈ 3.51 µM) | MIC ([5]; Neisseria gonorrhoeae): 0.25 µg/mL (≈ 0.876 µM) | MIC ([6]; Proteus mirabilis): 8 µg/mL (≈ 28 µM) | MIC [7]: 2 µg/mL (≈ 7.01 µM) | MIC [8]: 4 µg/mL (≈ 14 µM) | MIC [9]: 1 µg/mL (≈ 3.51 µM) | MIC ([10]; Staphylococcus aureus, MRSA): 2 µg/mL (≈ 7.01 µM) | MIC (Atopobium vaginae; CCUG38953): 0.125 µg/mL (≈ 0.438 µM) | MIC (Atopobium vaginae; CCUG39382): 0.25 µg/mL (≈ 0.876 µM) | MIC (Atopobium vaginae; CCUG42099): 0.5 µg/mL (≈ 1.75 µM) | MIC (Atopobium vaginae; CCUG43049): 0.25 µg/mL (≈ 0.876 µM) | MIC (Atopobium vaginae; CCUG44061): 0.5 µg/mL (≈ 1.75 µM) | MIC (Atopobium vaginae; CCUG44156): 0.5 µg/mL (≈ 1.75 µM) | MIC (Atopobium vaginae; CCUG48515): 1 µg/mL (≈ 3.51 µM) | MIC (Atopobium vaginae; CCUG55226): 1 µg/mL (≈ 3.51 µM) | MIC (Atopobium vaginae; CCUG55227): 0.25 µg/mL (≈ 0.876 µM) | MIC (Gardnerella vaginalis; ATCC14018, agar dilution, strain ATCC 14018): 2 µg/mL (≈ 7.01 µM) | MIC (Gardnerella vaginalis; agar dilution, strain C2): 8 µg/mL (≈ 28 µM) | MIC (Gardnerella vaginalis; agar dilution, strain D2): 4 µg/mL (≈ 14 µM) | MIC (Gardnerella vaginalis; agar dilution, strain E2): 2 µg/mL (≈ 7.01 µM) | MIC (Gardnerella vaginalis; agar dilution, strain G2): 2 µg/mL (≈ 7.01 µM) | MIC (Gardnerella vaginalis; agar dilution, strain H2): 1 µg/mL (≈ 3.51 µM) | MIC (Gardnerella vaginalis; agar dilution, strain J2): 2 µg/mL (≈ 7.01 µM) | MIC (Gardnerella vaginalis; agar dilution, strain K2): 4 µg/mL (≈ 14 µM) | C0 [11, 18]: 798 ng/mL | T1/7 [11, 18]: 24 min | Tlast [11, 18]: 120 min | concentration at 120 min [11, 18]: 5 ng/mL | Cmax [11, 19]: 8 ng/mL | Tmax [11, 19]: 30 min | Vss ([11]; rat, in vivo, iv, 2 mg/kg): 4.5 kg⁻¹ | detection of parent compound in urine samples ([12]; in vivo, po): not detected
